Experimental data as given in US10709764B2, “Use of compounds with thrombopoietic activity to promote bone growth and healing” (Osteofuse, Inc., priority 2010, dated 2020).

Experiments:
[1] = tested on: critical sized femoral defect; assay: Mouse critical sized femoral defect with scaffold, x-ray follow-up; format: in vivo, C57BL/6 male mice
Text: A critical sized femoral defect was created in the right femur of ten-week old C57BL/6 male mice. Our scaffold was inserted into the defect site. […] Referring now to FIG. 6, a critical sized femoral defect was created in the right femur of ten week old C57BL/6 male mice. A scaffold was inserted into the defect site.

[2] = tested on: C57BL/6 bone marrow macrophages (BMMs); assay: Osteoclast formation from bone marrow macrophages cultured with M-CSF and RANKL, TRAP staining; format: cell-based, mouse
Method: FIG. 2. Bar graph showing C57BL/6 bone marrow macrophages (BMMs) were cultured with M-CSF (30 ng/ml) and RANKL (50 ng/ml). While culturing C57BL/6 BMMs with M-CSF and RANKL (no TPO) results in the generation of mature TRAP^+ multinucleated osteoclasts (OCs) (>3 nuclei), culturing these cells with TPO (0.1-100 ng/ml) enhances the number OCs by >2-fold. *p<0.05
FIG. 3A. Representative micrograph of cultures of BMMs stimulated with M-CSF (30 ng/ml) and RANKL (50 ng/ml).
FIG. 3B. Representative micrograph of cultures of BMMs stimulated with M-CSF (30 ng/ml) and RANKL (50 ng/ml).

[3] = tested on: critical sized defect in the rat femur; assay: Long Evans rat femur gap model, scaffold in 5 mm segmental defect; format: in vivo, Long Evans rats
Text: A pilot study utilizing the Long Evans rat femur gap model which has been approved by the Laboratory Animal Care and Usage Committee (IACUC) at Indiana University was used to test a new method for repairing bone gaps. In brief, tube shape scaffolds with 4 mm external diameter, 2 mm internal diameter and 5 mm in height were manufactured from poly(propylene) fumarate/tricalcium phosphate. […] In the control group, the scaffolds were left untreated (n=3/group). Segmental defects of 5 mm were created in the right femurs of male Long Evans rats. The defect was filled with a 5 mm scaffold and secured with an intramedullary K-wire placed in retrograde fashion. Femurs were imaged by x-ray to assure proper placement and integrity of the scaffold. The rats were then imaged using x-ray at three week intervals to assess continued healing. At post-operative weeks 6 and 15, rats were euthanized and femurs analyzed by x-ray, microCT, and histology.
At 15 weeks, mineralized callus was seen bridging the two bone ends. In some areas adjacent to the scaffolds, isolated patches of cartilage with hypertrophic chondrocytes were observed, indicating the tissues were undergoing endochondral bone formation.

In the case of thrombopoietin [TPO], the “bridging callus formation (x-ray)” value ([1]; 2 weeks postoperatively, TPO 1 μg, BMP-2 4 μg in scaffold) is reported as “remain unbridged”, the “bridging callus formation (x-ray)” value ([1]; 4-6 weeks postoperatively, TPO 1 μg in scaffold) is reported as “have bridged” and the “restoration of bone contour compared with BMP-2 scaffolds” value ([1]; 4-6 weeks, TPO 1 μg vs BMP-2 4 μg) is reported as “better restores the original contour of the bone”. The “mature multinucleated OCs developed (TRAP staining)” value ([2]; TPO 100 ng/ml, M-CSF 30 ng/ml, RANKL 50 ng/ml) was “Significantly more OCs developed”, the “enhancement of the number of mature TRAP+ multinucleated osteoclasts (OCs)” value ([2]; TPO 0.1-100 ng/ml, M-CSF 30 ng/ml, RANKL 50 ng/ml, vs no TPO, p<0.05) was over 2 fold and the increase of osteoclastogenesis ([2]; osteoclast progenitors treated with TPO in vitro) was “up to 5 fold”. For the same substance, the “healing of critical sized defect (microCT)” value ([3]; 10 μg in scaffold, post-operative week 15, n=3/group) was “robustly healed”, the “cortex and trabeculae of the callus compared to callus induced by BMP-2” value ([3]; 10 μg in scaffold, week 15, BMP-2 from an earlier study) was “thicker” and the “remodeling compared with BMP-2” value ([3]; 15 weeks post-operative, μCT (FIG. 5)) was “more extensive remodeling”.
